Experimental findings from patent US20170071976A1, “PHARMACEUTICAL SOLUTION HAVING ANTI-TUMOR EFFECT-ENHANCING AND TOXICITY-REDUCING EFFECT, AND PHARMACEUTICAL COMPOSITION COMPRISING SAME” (priority 2014, published 2017) are described below.

The subject of assay [1] is human colon cancer HCT-116 cells. The assay can be described thus: Cell invasion assayed by Transwell. To be noted: for Number of cells (HCT-116): invaded cells, control 65.0 ± 12.0; for Number of cells: invaded HCT-116 cells, control 76.0 ± 4.6. Format: cell-based. Here is the method:
Inhibition of invasion of human colon cancer HCT-116 cells and human lung cancer A549 cells by deuterium oxide in combination with 5-fluorouracil or gemcitabine (by the Transwell method)
(§1) 1.1. Warm water at 37° C. to 40° C. was prepared, a cryogenic vial was taken out of liquid nitrogen and immediately put into the 37° C.-40° C. warm water, followed by vigorous shaking until the cryogenic liquid was completely thawed; 1.2. The suspension of cryogenic cells was transferred to a centrifugal tube, 5 ml culture medium was added thereto, and the cells were well mixed in the medium by gentle pipetting; 1.3. The cell suspension was centrifuged at 800 to 1,000 rpm for 5 min, and the supernatant was discarded; 1.4. A complete culture medium was added to the cell pellet which was well mixed by gentle pipetting, the cell suspension was transferred to a culture flask, and the cells were cultured by supplementing culture medium.
1. […] After incubation of cells with the test drugs for 24 hours, serum was removed, and the cells were incubated under starvation with an incomplete culture medium for 24 hours; 3. Matrigel was placed at 4° C. in advance to thaw overnight; 4. Thawed Matrigel was 1:1 diluted with the incomplete culture medium, 30 μl diluted Matrigel was added to the upper compartment of Transwell and incubated at 37° C. for 120 min to gel the Matrigel; 5. Cells from different groups were digested, counted, and then adjusted to a density of 1×10^5 cells/ml with the incomplete culture medium, 100 μl cell suspension was added to the upper compartment (small compartment) of Transwell, and 500 μl medium containing 20% FBS was added to the lower compartment of Transwell; 6. A 24-well cell culture plate was placed in an incubator at 37° C. and 5% CO2 to culture the cells for 24 hours; 7. Cell counting: cells in the Matrigel and the upper compartment were wiped off with a cotton swab, the Transwell was removed, followed by inversion and air drying, 500 μl medium containing 0.1% crystal violet was added to the 24-well plate, the small compartment was placed in the medium to allow the membrane to be immersed in the dye, removed after holding at 37° C. for 30 min, washed with PBS, and photographed in 3 fields along the diameter (200× magnification) for cell counting. 8. The assay was repeated one more time.

Assay [2] has the same test system. The assay can be described thus: Cell cycle by PI single staining (flow cytometry). Conditions: 72 hours. Format: cell-based. As to the method: Effect of deuterium oxide on the cell cycle of human lung cancer A549 cells and human colon cancer HCT-116 cells
A KGA511 Cell cycle assay kit was provided by NANJING KEYGEN BIOTECH. CO., LTD.
The flow cytometer was FACS Calibur provided by Becton-Dickinson, US.
as §1, with “vial of cells” for “vial”
2.1. The original culture medium was removed by pipetting when the cell coverage reached 80% to 90% in the culture bottle; 2.2. A suitable amount of trypsin (0.25%) was added to digest for 1 to 2 min; 2.3. When all the cells became round, an equal volume of culture medium containing serum was added to cease the digestion; 2.4. The cells were blown by pipetting to suspend, then drawn into a 15 ml centrifugal tube, and centrifuged at 1000 rpm for 5 min; 2.5. The supernatant was discarded, and the cells were re-suspended in 1 to 2 ml culture medium and transferred to a culture bottle for further culturing.
1. Cells growing in the exponential phase were digested and inoculated to a 6-well plate; on the next day, after the cells attached to the wall, cell culture media containing corresponding test drugs were added according to different groups, and a negative control group was also set; 2. After treatment with test drugs for 72 hours, cells were digested with 0.25% pancreatin (EDTA-free) and collected; 3. The cells were washed with PBS once (centrifuged at 2,000 rpm for 5 min), and 5×10^5 cells were collected; 4. The prepared suspension of individual cells was fixed with 70% (v/v) ethanol for 2 hours (or overnight), and stored at 4° C.; before staining, the fixing solution was washed away with PBS (if necessary, the cell suspension was filtered once through a 200-mesh screen); 5. 100 μl RNase A was added, and the cells were water-bathed at 37° C. for 30 min; 6. 400 μl PI was added and well mixed for staining, and the cells were kept at 4° C. in darkness for 30 min; 7. In a detection apparatus, red fluorescence with an excitation wavelength of 488 nm was recorded.
(In flow cytometry, cells or beads pass a laser one at a time.)

SMILES strings stand for the structures.

Consider `[2H]O[2H]` [Deuterium oxide], for which the “Number of cells (HCT-116)” value in assay [1] (deuterium oxide 1.8% (v/v)) was found to be 29.3 ± 5.1; in assay [1] (deuterium oxide 7.5% (v/v)) it was 3.7 ± 0.6; in assay [1] (deuterium oxide 15% (v/v)), 3.0 ± 1.0; in assay [1] (deuterium oxide 30% (v/v)) it was 1.70 ± 0.6; in assay [1] (deuterium oxide […] (v/v)) it was 16.3 ± 3.2. Moreover, the “G2 Phase” value in assay [2] (deuterium oxide 30% v/v, control 8.06 ± 1.89) worked out at 4.21 ± 0.95%. The “S Phase” value in assay [2] (deuterium oxide 30% v/v, control 9.40 ± 1.83) is listed as 6.61 ± 1.41%. For the same compound, in assay [2] (deuterium oxide 30% v/v, control 82.53 ± 1.76), the “G1 Phase” value was determined as 89.19 ± 3.81%.

Turning to `O=c1[nH]cc(F)c(=O)[nH]1` [Example 5-FU, 5-fluorouracil], the Number of cells in assay [1] (5-FU 0.195 ug/ml in NS) was found to be 66.0 ± 2.6; in assay [1] (5-FU 0.39 ug/ml in NS), 47.3 ± 4.0; in assay [1] (5-FU 0.78 ug/ml in NS) it was 31.3 ± 1.5; in assay [1] (5-FU 1.56 ug/ml in NS), 23.0 ± 4.6; in assay [1] (5-FU 3.125 ug/ml in NS), 12.0 ± 2.0; in assay [1] (5-FU 6.25 ug/ml in NS), 10.7 ± 1.5. Further, in assay [1] (5-FU 12.5 ug/ml in NS), the Number of cells is recorded as 6.3 ± 0.6. The “G1 Phase” value in assay [2] (5-FU 12.5 ug/ml in NS) is recorded as 32.69 ± 8.66%. Moreover, the “G2 Phase” value in assay [2] (5-FU 12.5 ug/ml in NS) was found to be 41.24 ± 2.97%. Moreover, in assay [2] (5-FU 12.5 ug/ml in NS), the “S Phase” value amounted to 26.07 ± 11.32%.
